This is an account of results in patent publication US11072584B2, “Carbon monoxide releasing norbornenone compounds” (OTAGO INNOVATION LIMITED, priority 2015, dated 2021).

In brackets after ≈: the same amount, converted by molar mass. Where a name gives a salt, the structure may show the parent alone.

By EC50 is commonly meant the concentration giving half of the maximal effect. As a reminder, the melting point is the temperature, or range, at which the solid turns liquid. Broadly, the solubility is the dissolved amount per volume that the medium holds. Lower therefore signals little dissolved substance.

The first data set has as its system MDCK cells. In words: crystal violet cell adhesion (CVCA) cell toxicity assay. The conditions noted are these: Canis lupus familiaris, MDCK, read-out: EC50 (μM), Active Compound.
For the molecule `CN(C)C(=O)[C@@H](N)CCCCN1C(=O)C2C3(C)C(=O)C(C)(C(c4ccccc4)=C3c3ccccc3)C2(Br)C1=O` (stereo partly drawn) [oCOM-36, N,N-Dimethyl (2S)-2-amino-6-(3a-bromo-4,7-dimethyl-1,3,8-trioxo-5,6-diphenyl-1,3,3a,4,7,7a-hexahydro-2H-4,7-methanoisoindol-2-yl)-hexanamide Trifluoroacetic Acid Salt], the 50% effective concentration (EC50) was greater than 100 µM.
The same measure, in the same setting: the same measure for `CC12C(=O)C(C)(C(c3ccccc3)=C1c1ccccc1)C1(Br)C(=O)N(CCCCCC(=O)O)C(=O)C21` (stereo not shown) [oCOM-38, 6-(3a-bromo-4,7-dimethyl-1,3,8-trioxo-5,6-diphenyl-1,3,3a,4,7,7a-hexahydro-2H-4,7-methanoisoindol-2-yl)-hexanoic Acid]: greater than 100 µM.
On the same count and under the same terms, the same measure for `COC(=O)[C@H](CCCCN1C(=O)C2C3(C)C(=O)C(C)(C(c4ccccc4)=C3c3ccccc3)C2(Br)C1=O)NC(C)=O` (stereo partly drawn) [oCOM-41, Methyl (2S)-2-acetamido-6-(3a-bromo-4,7-dimethyl-1,3,8-trioxo-5,6-diphenyl-1,3,3a,4,7,7a-hexahydro-2H-4,7-methanoisoindol-2-yl)hexanoate]: greater than 100 µM.
As for `Cc1noc([C@@H](N)CCCCN2C(=O)C3C4(C)C(=O)C(C)(C(c5ccccc5)=C4c4ccccc4)C3(Br)C2=O)n1` (stereo partly drawn) [oCOM-43, (1S)-1-amino-5-(3a-bromo-4,7-dimethyl-1,3,8-trioxo-5,6-diphenyl-1,3,3a,4,7,7a-hexahydro-2H-4,7-methanoisoindol-2-yl)-1-(3-methyl-1,2,4-oxadiazol-5-yl)pentane Trifluoroacetic Acid Salt], the EC50 is greater than 100 µM.
For the molecule `Cc1nnc([C@@H](N)CCCCN2C(=O)C3C4(C)C(=O)C(C)(C(c5ccccc5)=C4c4ccccc4)C3(Br)C2=O)o1` (stereo partly drawn) [oCOM-45, (1S)-1-Amino-5-(3a-bromo-4,7-dimethyl-1,3,8-trioxo-5,6-diphenyl-1,3,3a,4,7,7a-hexahydro-2H-4,7-methanoisoindol-2-yl)-1-(5-methyl-1,3,-oxadiazol-2-yl)pentane Trifluoroacetic Acid Salt], the EC50 is greater than 100 µM.
Take `CC12C(=O)C(C)(C(c3ccccc3)=C1c1ccccc1)C1(Br)C(=O)N(CCC(=O)NC(CO)(CO)CO)C(=O)C21` (stereo not shown) [oCOm-24, N-(2-Hydroxy-1,1-bis(hydroxymethyl)ethyl)-3-(3a-bromo-4,7-dimethyl-1,3,8-trioxo-5,6-diphenyl-3a,4,7,7a-tetrahydro-1H-4,7-methanoisoindol-2(2H)-yl)propanamide]: the EC50 was greater than 100 µM.

The same data set, now with this note: Canis lupus familiaris, MDCK, read-out: EC50 (μM), Inactive Compound.
Regarding `Cc1c2c(c(C)c(-c3ccccc3)c1-c1ccccc1)C(=O)N(CCN)C2=O` [BP-21, 2-(4,7-Dimethyl-1,3-dioxo-5,6-diphenylisoindolin-2-yl)ethanaminium 2,2,2-trifluoroacetate, reference compound], the EC50 came to 21 µM.

Still in this data set, the particulars now being: read-out: EC50 (μM), Inactive Compound; MDCK cells; inactive debromo or CO depleted analogues; 37° C.
Turning to `Cc1c2c(c(C)c(-c3ccccc3)c1-c1ccccc1)C(=O)N(CCNCCN)C2=O` [BP-23, 2-(2-(2-Aminoethyl)aminoethyl)-4,7-dimethyl-5,6-diphenyl-1H-isoindole-1,3,8(2H)-diione Bis-trifluoroacetate Salt], the EC50 was greater than 100 µM.

Test system in the next data set: not given
Assay: not given
Settings: not given
Molecule `Cc1c2c(c(C)c(-c3ccccc3)c1-c1ccccc1)C(=O)N(c1ccc(O)c([N+](=O)[O-])c1)C2=O` [BP-11, 2-(4-Hydroxy-3-nitrophenyl)-4,7-dimethyl-5,6-diphenyl-1H-isoindole-1,3(2H)-dione] registered a melting point greater than 250 °C.
Consider `CC(=O)OC[C@H]1O[C@@H](Oc2ccc(N3C(=O)c4c(C)c(-c5ccccc5)c(-c5ccccc5)c(C)c4C3=O)cc2)[C@H](OC(C)=O)[C@@H](OC(C)=O)[C@@H]1OC(C)=O` [BP-14, N-(4-O-(2,3,4,6-tetra-O-acetyl-β-D-glucopyranosyl)phenyl)-3,6-dimethyl-4,5-diphenyl-3,6-phthalimide], for which the melting point fell in the range of 113 to 115 °C.
Molecule `CC(=O)OCCN1C(=O)c2c(C)c(-c3ccccc3)c(-c3ccccc3)c(C)c2C1=O` [BP-16, 4,7-Dimethyl-2-(2-acetoxyethyl)-5,6-diphenyl-1H-isoindole-1,3(2H)-dione] had a melting point of 155 °C.
With `Cc1c2c(c(C)c(-c3ccccc3)c1-c1ccccc1)C(=O)N(CCC(=O)NCCNC(=O)OC(C)(C)C)C2=O` [BP-18, Tert-Butyl (2-(3-(4,7-dimethyl-1,3-dioxo-5,6-diphenylisoindolin-2-yl)propanamido)ethyl)carbamate], the melting point lay in the range of 183 to 185 °C.
On the same count and under the same terms, the same measure for `Cc1c2c(c(C)c(-c3ccccc3)c1-c1ccccc1)C(=O)N(CCNC(=O)OC(C)(C)C)C2=O` [BP-20, Tert-Butyl (2-(4,7-dimethyl-1,3-dioxo-5,6-diphenylisoindolin-2-yl)ethyl)carbamate]: 181 to 182 °C; for `Cc1c2c(c(C)c(-c3ccccc3)c1-c1ccccc1)C(=O)N(CCN(CCNC(=O)OC(C)(C)C)C(=O)OC(C)(C)C)C2=O` [BP-22, Tert-Butyl (3-((tert-butoxycarbonyl)amino)ethyl)(2-(4,7-dimethyl-1,3-dioxo-5,6-diphenylisoindolin-2-yl)ethyl)carbamate]: 202 to 205 °C.
`CC12C(=O)C(C)(C(c3ccccc3)=C1c1ccccc1)C1(Cl)C(=O)N(c3ccccc3)C(=O)C21` (stereo not shown) [oCOm-2, 3a-Chloro-3a,4,7,7a-tetrahydro-4,7-dimethyl-2,5,6-triphenyl-4,7-methano-1H-isoindole-1,3,8(2H)-trione] came in with a melting point of 182 to 184 °C.
With `CC12C(=O)C(C)(C(c3ccccc3)=C1c1ccccc1)C1(Sc3ccccc3)C(=O)N(c3ccccc3)C(=O)C21` (stereo not shown) [oCOm-4, 3a-Phenylthio-3a,4,7,7a-tetrahydro-4,7-dimethyl-2,5,6-triphenyl-4,7-methano-1H-isoindole-1,3,8(2H)-trione], the melting point was 193 °C.
In turn, `CC12C(=O)C(C)(C(c3ccccc3)=C1c1ccccc1)C1([S+]([O-])c3ccccc3)C(=O)N(c3ccccc3)C(=O)C21` (stereo not shown) [oCOm-5, 3a-Phenylsulfinyl-3a,4,7,7a-tetrahydro-4,7-dimethyl-2,5,6-triphenyl-4,7-methano-1H-isoindole-1,3,8(2H)-trione] yielded a melting point of 186 °C.
Still for that read-out and setting: under `CC12C(=O)C(C)(C(c3ccccc3)=C1c1ccccc1)C1(S(=O)(=O)c3ccccc3)C(=O)N(c3ccccc3)C(=O)C21` (stereo not shown) [oCOm-6, 3a-Phenylsulfonyl-3a,4,7,7a-tetrahydro-4,7-dimethyl-2,5,6-triphenyl-4,7-methano-1H-isoindole-1,3,8(2H)-trione] stands 106 °C.
Consider `CC12C(=O)C(C)(C(c3ccccc3)=C1c1ccccc1)C1(Br)C(=O)N(c3ccc(O)c([N+](=O)[O-])c3)C(=O)C21` (stereo not shown) [oCOm-11, 3a-Bromo-3a,4,7,7a-tetrahydro-4,7-dimethyl-2-(4-hydroxy-3-nitrophenyl)-5,6-diphenyl-4,7-methano-1H-isoindole-1,3,8(2H)-trione], for which the melting point is 207 °C (dec.).
On the same count and under the same terms, under `CC(C)(C)OC(=O)N[C@@H](CCCCN1C(=O)C2C3(C)C(=O)C(C)(C(c4ccccc4)=C3c3ccccc3)C2(Br)C1=O)C(=O)O` (stereo partly drawn) [oCOm-27, (2S)-2-tert-butoxycarbonylamino-6-(3a-bromo-4,7-dimethyl-1,3,8-trioxo-5,6-diphenyl-1,3,3a,4,7,7a-hexahydro-2H-4,7-methanoisoindol-2-yl) hexanoic acid] stands 87 to 92 °C.

Test system in a further data set: not listed separately
The data set can be described thus: Solubility in water. In kind it is physicochemical. As to conditions: water or physiological buffers.
As to `CC12C(=O)C(C)(C(c3ccccc3)=C1c1ccccc1)C1(Br)C(=O)N(CCC(=O)NC(CO)(CO)CO)C(=O)C21` (stereo not shown) [oCOm-24, N-(2-Hydroxy-1,1-bis(hydroxymethyl)ethyl)-3-(3a-bromo-4,7-dimethyl-1,3,8-trioxo-5,6-diphenyl-3a,4,7,7a-tetrahydro-1H-4,7-methanoisoindol-2(2H)-yl)propanamide], the “solubility (in words)” value is reported as “decreased solubility”.

Still in this data set, the particulars now being: water, 21° C.
With `CC12C(=O)C(C)(C(c3ccccc3)=C1c1ccccc1)C1(Br)C(=O)N(CCC(=O)NC(CO)(CO)CO)C(=O)C21` (stereo not shown) [oCOm-24, N-(2-Hydroxy-1,1-bis(hydroxymethyl)ethyl)-3-(3a-bromo-4,7-dimethyl-1,3,8-trioxo-5,6-diphenyl-3a,4,7,7a-tetrahydro-1H-4,7-methanoisoindol-2(2H)-yl)propanamide], the solubility came out at 5000 µg/mL (≈ 8.18 mM).
